From patent US8993542B2, “Methods of treating viral infections” (priority 2008, dated 2015)
pIC50: −log10 of the molar value. Where two headings read alike, the source gives them in different places.

Tests used:
[1] = system: HIV; assay: microbe, parasite or virus in culture; type: cell-based; conditions: for pIC50: read-out: IC50
[2] = Toxicokinetics and 7-day toxicity after oral administration of CMX157 to rats; type: in vivo; conditions: rat plasma
[3] = system: HIV-1IIIB; assay: TCID50 determination of drug-treated HIV-1IIIB; type: cell-based; parameters: TCID50, XTT Endpoint / TCID50, RT Endpoint / TCID50, P24 Endpoint: unit not given here
[4] = PANEL 40, M41L + L210W + T215Y + M184V
[5] = PANEL 41, M41L + L210W + T215Y + M184V
[6] = PANEL 44, D67N + K70R + T215F + K219E + M184V
[7] = virus treated 2 hours with 125 nM drug
[8] = virus treated 2 hours with 250 nM drug
[9] = virus treated 2 hours with 500 nM drug
[10] = virus treated 2 hours with 1000 nM drug

C[C@H](Cn1cnc2c(N)ncnc21)OCP(=O)(O)O [TFV, (R)-9-(2-phosphonylmethoxypropyl)adenine]
IC50 Fold Change ([1]; PANEL 1, WT): 0.79 | pIC50 ([1]; PANEL 1, WT): 6.21 | IC50 Fold Change ([1]; PANEL 2, WT): 0.85 | pIC50 ([1]; PANEL 2, WT): 6.19 | IC50 Fold Change ([1]; PANEL 3, 6 TAMs, no 184): 3.47 | pIC50 ([1]; PANEL 3, 6 TAMs, no 184): 5.57 | IC50 Fold Change ([1]; PANEL 6, 6 TAMs + 184): 2.16 | pIC50 ([1]; PANEL 6, 6 TAMs + 184): 5.78 | IC50 Fold Change ([1]; PANEL 7, 184V): 0.69 | pIC50 ([1]; PANEL 7, 184V): 6.27 | IC50 Fold Change ([1]; PANEL 9, 69ins, no 184): 22.00 | pIC50 ([1]; PANEL 9, 69ins, no 184): 4.77 | IC50 Fold Change ([1]; PANEL 12, 69ins + 184): 4.72 | pIC50 ([1]; PANEL 12, 69ins + 184): 5.44 | IC50 Fold Change ([1]; PANEL 14, 65R, no 184): 1.71 | pIC50 ([1]; PANEL 14, 65R, no 184): 5.88 | IC50 Fold Change ([1]; PANEL 15, 65R + 184V): 1.22 | pIC50 ([1]; PANEL 15, 65R + 184V): 6.03 | IC50 Fold Change ([1]; PANEL 17, L74V): 0.62 | pIC50 ([1]; PANEL 17, L74V): 6.32 | IC50 Fold Change ([1]; PANEL 19, L74V + M184V): 0.29 | pIC50 ([1]; PANEL 19, L74V + M184V): 6.64 | IC50 Fold Change ([1]; PANEL 26, 151M, no 184): 2.26 | pIC50 ([1]; PANEL 26, 151M, no 184): 5.76 | IC50 Fold Change ([1]; PANEL 28, 151M + 184): 1.43 | pIC50 ([1]; PANEL 28, 151M + 184): 5.96 | IC50 Fold Change ([1]; PANEL 29, L74V − SDM): 0.69 | pIC50 ([1]; PANEL 29, L74V − SDM): 6.27 | IC50 Fold Change ([1]; PANEL 30, M184V − SDM): 0.54 | pIC50 ([1]; PANEL 30, M184V − SDM): 6.38 | IC50 Fold Change ([1]; PANEL 31, K65R − SDM): 2.01 | pIC50 ([1]; PANEL 31, K65R − SDM): 5.81 | IC50 Fold Change ([1]; PANEL 33, T215Y): 2.39 | pIC50 ([1]; PANEL 33, T215Y): 5.73 | IC50 Fold Change ([1]; PANEL 34, T215Y + M184V): 0.81 | pIC50 ([1]; PANEL 34, T215Y + M184V): 6.20 | IC50 Fold Change ([1]; PANEL 35, M41L + T215Y): 1.84 | pIC50 ([1]; PANEL 35, M41L + T215Y): 5.85 | IC50 Fold Change ([1]; PANEL 37, M41L + T215Y + M184V): 1.34 | pIC50 ([1]; PANEL 37, M41L + T215Y + M184V): 5.99 | IC50 Fold Change ([1]; PANEL 38, M41L + L210W + T215Y): 2.80 | pIC50 ([1]; PANEL 38, M41L + L210W + T215Y): 5.67 | IC50 Fold Change ([1]; PANEL 39, M41L + L210W + T215Y): 3.01 | pIC50 ([1]; PANEL 39, M41L + L210W + T215Y): 5.63 | IC50 Fold Change [1, 4]: 0.97 | pIC50 [1, 4]: 6.12 | IC50 Fold Change [1, 5]: 1.02 | pIC50 [1, 5]: 6.10 | IC50 Fold Change ([1]; PANEL 42, D67N + K70R): 2.56 | pIC50 ([1]; PANEL 42, D67N + K70R): 5.71 | IC50 Fold Change [1, 6]: 0.91 | pIC50 [1, 6]: 6.15 | IC50 Fold Change ([1]; PANEL 45, L210W + T215Y): 1.34 | pIC50 ([1]; PANEL 45, L210W + T215Y): 5.99 | IC50 Fold Change ([1]; PANEL 46, D67N + K70E): 0.96 | pIC50 ([1]; PANEL 46, D67N + K70E): 6.13 | IC50 Fold Change ([1]; PANEL 47, D67N + K70E + M184V): 0.64 | pIC50 ([1]; PANEL 47, D67N + K70E + M184V): 6.31 | IC50 Fold Change ([1]; PANEL 48, K70E + M184V): 0.61 | pIC50 ([1]; PANEL 48, K70E + M184V): 6.33 | AUC0-24 ([2]; oral CMX157 10 mg/kg, day 1): 510.8 ng·h/mL | AUC0-∞ ([2]; oral CMX157 10 mg/kg, day 1): 775.2 ng·h/mL | Cmax ([2]; oral CMX157 10 mg/kg, day 1): 55.35 ng/mL | Tmax ([2]; oral CMX157 10 mg/kg, day 1): 2.0 h | t1/2elim ([2]; oral CMX157 10 mg/kg, day 1): 10.9 h | AUC0-24 ([2]; oral CMX157 10 mg/kg, day 7): 964.7 ng·h/mL | AUC0-∞ ([2]; oral CMX157 10 mg/kg, day 7): 1,226.9 ng · h/ml | Cmax ([2]; oral CMX157 10 mg/kg, day 7): 49.55 ng/mL | Tmax ([2]; oral CMX157 10 mg/kg, day 7): 2.4 h | t1/2elim ([2]; oral CMX157 10 mg/kg, day 7): 9.2 h | AUC0-24 ([2]; oral CMX157 30 mg/kg, day 1): 1,456.1 ng · h/ml | AUC0-∞ ([2]; oral CMX157 30 mg/kg, day 1): 1,808.1 ng · h/ml | Cmax ([2]; oral CMX157 30 mg/kg, day 1): 109.10 ng/mL | Tmax ([2]; oral CMX157 30 mg/kg, day 1): 4.0 h | t1/2elim ([2]; oral CMX157 30 mg/kg, day 1): 10.1 h | AUC0-24 ([2]; oral CMX157 30 mg/kg, day 7): 2,363.4 ng · h/ml | AUC0-∞ ([2]; oral CMX157 30 mg/kg, day 7): 2,790.5 ng · h/ml | Cmax ([2]; oral CMX157 30 mg/kg, day 7): 149.25 ng/mL | Tmax ([2]; oral CMX157 30 mg/kg, day 7): 4.0 h | t1/2elim ([2]; oral CMX157 30 mg/kg, day 7): 7.6 h | AUC0-24 ([2]; oral CMX157 100 mg/kg, day 1): 3,039.3 ng · h/ml | AUC0-∞ ([2]; oral CMX157 100 mg/kg, day 1): 3,639.5 ng · h/ml | Cmax ([2]; oral CMX157 100 mg/kg, day 1): 181.40 ng/mL | Tmax ([2]; oral CMX157 100 mg/kg, day 1): 12.0 h | t1/2elim ([2]; oral CMX157 100 mg/kg, day 1): 7.2 h | AUC0-24 ([2]; oral CMX157 100 mg/kg, day 7): 5,715.4 ng · h/ml | AUC0-∞ ([2]; oral CMX157 100 mg/kg, day 7): 7,373.4 ng · h/ml | Cmax ([2]; oral CMX157 100 mg/kg, day 7): 322.00 ng/mL | Tmax ([2]; oral CMX157 100 mg/kg, day 7): 12.0 h | t1/2elim ([2]; oral CMX157 100 mg/kg, day 7): 9.0 h | effect on viral replication ([3]; up to 1000 nM, 2 hours): no discernible effect | Fold Decrease From VC, P24 Endpoint [3, 7]: (0) Fold | Fold Decrease From VC, RT Endpoint [3, 7]: (1.1) Fold | Fold Decrease From VC, XTT Endpoint [3, 7]: (1.1) Fold | TCID50, P24 Endpoint [3, 7]: 43056 | TCID50, RT Endpoint [3, 7]: 72449 | TCID50, XTT Endpoint [3, 7]: 4027 | Fold Decrease From VC, P24 Endpoint [3, 8]: (0) Fold | Fold Decrease From VC, RT Endpoint [3, 8]: (1.1) Fold | Fold Decrease From VC, XTT Endpoint [3, 8]: (0) Fold | TCID50, P24 Endpoint [3, 8]: 36227 | TCID50, RT Endpoint [3, 8]: 72449 | TCID50, XTT Endpoint [3, 8]: 4529 | Fold Decrease From VC, P24 Endpoint [3, 9]: (0) Fold | Fold Decrease From VC, RT Endpoint [3, 9]: (0) Fold | Fold Decrease From VC, XTT Endpoint [3, 9]: (0) Fold | TCID50, P24 Endpoint [3, 9]: 37328 | TCID50, RT Endpoint [3, 9]: 81289 | TCID50, XTT Endpoint [3, 9]: 4529 | Fold Decrease From VC, P24 Endpoint [3, 10]: (0) Fold | Fold Decrease From VC, RT Endpoint [3, 10]: (1.3) Fold | Fold Decrease From VC, XTT Endpoint [3, 10]: (0) Fold | TCID50, P24 Endpoint [3, 10]: 36227 | TCID50, RT Endpoint [3, 10]: 64570 | TCID50, XTT Endpoint [3, 10]: 4529
